Data: patent publication US8815946B2, “Inhibition of proliferation and fibrotic response of activated corneal stromal cells” (University of Pittsburgh—of the Commonwealth System of …, priority 2008, dated 2014)
“Also recorded” adds a separate entry of the source.

Columns and labels:
[1] = tested on: type III collagen, tenascin and fibronectin; experiment: Western blot of TGF-β1 activated rabbit corneal keratocytes: type III collagen, tenascin, fibronectin; format: cell-based; details: TGF-β1 (10 ng/ml)+1% FBS, two days, compared to controls with no treatment
Experimental: (§1) FIGS. 19A and 19B. Western blot analyses: Rabbit corneal keratocytes were isolated and cultured in serum-free DMEM/F12 into 60 mm tissue culture dishes. After 24 hrs of incubation, the media were replaced with DMEM/F12 medium containing TGF-β1(10 ng/ml)+1% FBS without (control) or with EP or EP-derivatives for two days. The cells were extracted in RIPA buffer and the extracts containing 5 μg of total proteins were loaded per lane for Western blot analysis.
(§2) Keratocytes or fibroblasts grown under different culture conditions were extracted in RIPA buffer (9.1 mM dibasic sodium phosphate, 1.7 mM monobasic sodium phosphate, 150 mM NaCl, pH, 7.4, 1% Nonidet P-40, 0.5% sodium deoxycholate, 0.1% SDS, 0.03 TIU/mL aprotinin, 1 mM sodium orthovanadate, and 100 μg/mL phenylmethylsulfonyl fluoride (PMSF)). Aliquots of cell extracts containing 50 or 100 μg protein were subjected to SDS-PAGE. Protein bands on SDS-PAGE were electrophoretically transferred to IMMOBILON-P™ membrane (Millipore Corp., Bedford, Mass.), stained with 0.1% Coomassie blue 250 in 40% methanol/1% acetic acid for 1 minute, destained one to three times with 50% methanol/1% acetic acid, scanned for densitometric comparisons of relative concentrations of proteins per lane, destained with methanol, and subjected to Western blot analysis. Immunoreactive bands were detected using chemiluminescence Western chemiluminescence reagents.
(§3) As described in Example 1, corneal stromal cells were isolated from rabbit corneas and cultured using the same procedures. The keratocytes in serum free media were treated with b-FGF (40 ng/ml)+HS (5 μg/ml) with or without 15 mM EP or 1, 2.5 or 5 mM following EP derivatives: 2-oxopropionic acid 3-methoxyphenyl ester, 2-oxopropionic acid 2-ethoxyethyl ester, 2-oxopropionic acid 2-chloroethyl ester, 2-oxopropionic acid isopropyl ester, 2-oxopropionic acid butyl ester, 2-oxopropionic acid p-tolyl ester, 2-oxopropionic acid tert-butyl ester. […] The relative levels of the expression of specific proteins were analyzed by Western blot analyses of the cell lysates as described supra.

[2] = tested on: alpha-smooth muscle actin; experiment: Western blot of TGF-β1 activated rabbit corneal keratocytes: alpha-smooth muscle actin; format: cell-based; details: TGF-β1 (10 ng/ml)+1% FBS, two days, compared to controls with no treatment
Experimental: as §1, §2, §3

SMILES | levels of type III collagen, tenascin and fibronectin (Western blot) [1] | alpha-smooth muscle actin levels (Western blot) [2]
CC(=O)C(=O)Oc1ccc(C)cc1 [2-oxopropionic acid p-tolyl ester] | reduced levels | reduced expression; also recorded: reduced levels
CC(=O)C(=O)OCCCl [2-oxopropionic acid 2-chloroethyl ester] | reduced levels | reduced expression; also recorded: reduced levels
